Source: patent publication US12653191B2, “Active compound combinations” (Bayer Aktiengesellschaft, priority 2020, dated 2026)
Read-outs that look alike come from different tables or passages of the source.

Legend:
[1] = tested on: Cercospora beticola; experiment: in vitro-Test with fungal microorganisms, Method B (tables C11-C20); assay type: cell-based; conditions: Cercospora beticola, read-out: Efficacy %
Summary of the method: (§1)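 Efficacy, relative to untreated control (0% = growth as in control, 100% = no growth), from photometric growth measurement at 600 nm after 3 to 7 days at 20° C., 85% relative humidity. Compound applied in methanol+emulsifier, solvent evaporated, then spore/mycelium-amended liquid medium added.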

[2] = tested on: Cordana musae; experiment: in vitro-Test with fungal microorganisms, Method A (tables E1-E8); assay type: cell-based; conditions: Neocordana musae, single substance, read-out: Efficacy %
Summary of the method: (§2)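 Growth inhibition was measured photometrically at 620 nm 3–5 days after application, with 100% efficacy meaning no growth and 0% meaning growth equal to the untreated control. Fungal spore or mycelium suspension in potato dextrose broth was added onto solvent-evaporated compound and incubated at 20° C and 85% relative humidity.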

[3] = tested on: Parastagonospora nodorum; experiment: in vitro-Test with fungal microorganisms, Method A (tables H1-H4); assay type: cell-based
Experimental: Example: In Vitro-Test with Fungal Microorganisms
Wells of 96-well microtiter plates are filled with 10 μl of a preparation of test compound or compound combination in methanol+emulsifier alkylaryl-polyglycol-ether. Thereafter, the solvent is evaporated in a hood. At the next step, 100 μl of liquid potato dextrose medium is given into each well, that has been amended with an appropriate concentration of spores or mycelium suspension of the test fungus.
With the aid of a photometer, the extinction in all wells is measured at the wavelength of 620 nm.
The microtiter plates are incubated at 20° C. and 85% relative humidity. The inhibition of growth is determined again photometrically 3-5 days after the application. Efficacy is calculated in relation to the untreated control, 0% efficacy means fungal growth as high as in untreated control while 100% efficacy means no fungal growth is measured.
The data in tables A1 to A12, B1 to B14, C1 to C10, D1 to D8, E1 to E8, F1 to F11, G1 to G4, H1 to H4 and I1 to I5 were collected according to Method A. The data in tables A13 to A22, B15 to B18, C11 to C20, E9 to E16, F12 to F15, G5 to G15, H5 to H8, I6 to I11 and J1 to J11 were collected according to Method B.

[4] = tested on: Cercospora beticola; experiment: in vitro-Test with fungal microorganisms, Method A (tables C1-C10); assay type: cell-based; conditions: Cercospora beticola, read-out: Efficacy %
Summary of the method: as §2

[5] = tested on: Alternaria alternata; experiment: in vitro-Test with fungal microorganisms, Method B (tables A13-A22); assay type: cell-based; conditions: Alternaria alternata, read-out: Efficacy
Summary of the method: as §1

[6] = tested on: Parastagonospora nodorum; experiment: in vitro-Test with fungal microorganisms, Method B (tables H5-H8); assay type: cell-based; conditions: Parastagonospora nodorum, read-out: Efficacy
Summary of the method: as §1

[7] = tested on: Botrytis cinerea; experiment: in vitro-Test with fungal microorganisms, Method B (tables B15-B18); assay type: cell-based; conditions: Botrytis cinerea, alone, read-out: Efficacy %
Summary of the method: as §1

[8] = tested on: Cordana musae; experiment: in vitro-Test with fungal microorganisms, Method B (tables E9-E16); assay type: cell-based
Summary of the method: as §1

[9] = tested on: Alternaria alternate; experiment: in vitro-Test with fungal microorganisms, Method A (tables A1-A12); assay type: cell-based, Alternaria alternata; conditions: Alternaria, applied alone, read-out: Efficacy %
Summary of the method: as §2

[10] = tested on: Ustilago segetum var. avenae; experiment: in vitro-Test with fungal microorganisms, Method B (tables I6-I11); assay type: cell-based; conditions: read-out: Efficacy %
Summary of the method: as §1

[11] = tested on: Botrytis cinerea; experiment: in vitro-Test with fungal microorganisms, Method A (tables B1-B14); assay type: cell-based; conditions: Botrytis cinerea
Summary of the method: as §2

[12] = tested on: Fusarium culmorum; experiment: in vitro-Test with fungal microorganisms, Method B (tables G5-G15); assay type: cell-based; conditions: Fusarium culmorum, read-out: Efficacy
Summary of the method: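 Compound in methanol plus alkylaryl-polyglycol-ether emulsifier dried in wells, then liquid medium containing Fusarium culmorum spores or mycelium added. Incubated 3-7 days at 20° C, 85% relative humidity; growth read at 600 nm. Efficacy relative to untreated control (0% equals control growth, 100% none).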

[13] = tested on: Diaporthe citri; experiment: in vitro-Test with fungal microorganisms, Method A (tables F1-F11); assay type: cell-based; conditions: Diaporthe citri, applied alone, read-out: Efficacy
Summary of the method: as §2

[14] = tested on: Colletotrichum coccodes; experiment: in vitro-Test with fungal microorganisms, Method B (tables J1-J11); assay type: cell-based; conditions: Colletotrichum coccodes, read-out: Efficacy %
Summary of the method: as §1

[15] = tested on: Ustilago segetum var. avenae; experiment: in vitro-Test with fungal microorganisms, Method A (tables I1-I5); assay type: cell-based; conditions: alone, read-out: Efficacy %
Summary of the method: as §2

[16] = tested on: Colletotrichum lindemuthianum; experiment: in vitro-Test with fungal microorganisms, Method A (tables D1-D8); assay type: cell-based; conditions: Colletotrichum lindemuthianum, read-out: Efficacy %
Summary of the method: as §2

[17] = tested on: Fusarium culmorum; experiment: in vitro-Test with fungal microorganisms, Method A (tables G1-G4); assay type: cell-based; conditions: Fusarium culmorum, read-out: Efficacy
Summary of the method: as §2

## CC1COC(Cn2cncn2)(c2ccc(Oc3ccc(Cl)cc3)cc2Cl)O1 (stereo not shown) [(1.002) difenoconazole, difenoconazole]
[1]
  inhibition of growth at 0.008 ppm: 5%
  inhibition of growth at 0.04 ppm: 60%
  inhibition of growth at 0.2 ppm: 98%
[1]; 1 ppm
  inhibition of growth at 1 ppm: 99%
[1]; single compound
  inhibition of growth at 0.008 ppm: 16%
  inhibition of growth at 0.04 ppm: 51%
  inhibition of growth at 0.2 ppm: 100%
[2]; 0.2 ppm
  inhibition of growth at 0.2 ppm: 0%
[2]; 1.0 ppm
  inhibition of growth at 1 ppm: 14%
[3]; 0.04 ppm
  Efficacy: 22%
[3]; 0.2 ppm
  Efficacy: 88%
[4]; 0.008 ppm alone
  inhibition of growth at 0.008 ppm: 5%
[4]; 0.008 ppm
  inhibition of growth at 0.008 ppm: 15%
[4]; 0.04 ppm alone
  inhibition of growth at 0.04 ppm: 20%
[4]; 0.04 ppm
  inhibition of growth at 0.04 ppm: 40%
[4]; 0.2 ppm alone
  inhibition of growth at 0.2 ppm: 79%
[4]; 0.2 ppm
  inhibition of growth at 0.2 ppm: 89%
[4]; 1.0 ppm alone
  inhibition of growth at 1 ppm: 99%
[4]; 1.0 ppm
  inhibition of growth at 1 ppm: 99%
[5]; single compound, 0.04 ppm
  inhibition of growth at 0.04 ppm: 21%
[5]; single compound, 0.2 ppm
  inhibition of growth at 0.2 ppm: 53%
[5]; single compound, 1 ppm
  inhibition of growth at 1 ppm: 94%
[6]; 0.008 ppm
  inhibition of growth at 0.008 ppm: 32%
[6]; 0.04 ppm
  inhibition of growth at 0.04 ppm: 100%
[6]; 0.2 ppm
  inhibition of growth at 0.2 ppm: 100%
[7]; 1 ppm
  inhibition of growth at 1 ppm: 13%
[8]; Neocordana musae, single active, 0.04 ppm, read-out: Efficacy
  inhibition of growth at 0.04 ppm: 0%
[8]; Neocordana musae, single active, 0.2 ppm, read-out: Efficacy
  inhibition of growth at 0.2 ppm: 16%
[8]; Neocordana musae, single active, 1 ppm, read-out: Efficacy
  inhibition of growth at 1 ppm: 20%
[8]; single substance, 0.04 ppm
  Efficacy %: 0%
[9]; 0.04 ppm
  inhibition of growth at 0.04 ppm: 10%
[9]; 0.2 ppm
  inhibition of growth at 0.2 ppm: 28%
[9]; 1.0 ppm
  inhibition of growth at 1 ppm: 96%
[10]; 0.008 ppm
  inhibition of growth at 0.008 ppm: 2%
[10]; 0.04 ppm
  inhibition of growth at 0.04 ppm: 40%
[10]; 0.2 ppm
  inhibition of growth at 0.2 ppm: 100%
[11]; alone, 0.008 ppm, read-out: Efficacy %
  inhibition of growth at 0.008 ppm: 8%
[11]; alone, 0.04 ppm, read-out: Efficacy %
  inhibition of growth at 0.04 ppm: 0%
[11]; alone, 0.2 ppm, read-out: Efficacy %
  inhibition of growth at 0.2 ppm: 0%
[11]; alone, 1.0 ppm, read-out: Efficacy %
  inhibition of growth at 1 ppm: 0%
[12]; 0.04 ppm, alone
  inhibition of growth at 0.04 ppm: 26%
[13]; 0.04 ppm
  inhibition of growth at 0.04 ppm: 0.04%
[14]; 0.2 ppm
  inhibition of growth at 0.2 ppm: 0.31%
[14]; single active compound at 1 ppm
  inhibition of growth at 1 ppm: 24%
[15]; 0.008 ppm
  inhibition of growth at 0.008 ppm: 8%
[15]; 0.04 ppm
  inhibition of growth at 0.04 ppm: 14%
[15]; 1.0 ppm
  inhibition of growth at 1 ppm: 100%
[16]; mixing partner alone, 0.008 ppm
  inhibition of growth at 0.008 ppm: 0%
[16]; mixing partner alone, 0.04 ppm
  inhibition of growth at 0.04 ppm: 2%
[16]; mixing partner alone, 0.2 ppm
  inhibition of growth at 0.2 ppm: 0%
[16]; mixing partner alone, 1.0 ppm
  inhibition of growth at 1 ppm: 16%

## O=C(NCCc1ncc(C(F)(F)F)cc1Cl)c1ccccc1C(F)(F)F [(2.005) fluopyram, Fluopyram]
[1]
  inhibition of growth at 0.8 ppm: 31%
  inhibition of growth at 4 ppm: 0%
  inhibition of growth at 20 ppm: 56%
[1]; single compound
  inhibition of growth at 0.8 ppm: 11%
  inhibition of growth at 4 ppm: 0%
  inhibition of growth at 20 ppm: 7%
[2]; 0.8 ppm
  inhibition of growth at 0.8 ppm: 0%
[2]; 4.0 ppm
  inhibition of growth at 4 ppm: 1%
[3]; 0.8 ppm
  Efficacy: 37%
[3]; 4.0 ppm
  Efficacy: 44%
[3]; 20.0 ppm
  Efficacy: 70%
[4]; 0.8 ppm alone
  inhibition of growth at 0.8 ppm: 0%
[4]; 4.0 ppm alone
  inhibition of growth at 4 ppm: 27%
[4]; 20.0 ppm alone
  inhibition of growth at 20 ppm: 39%
[5]
  inhibition of growth at 0.8 ppm: 61%
  inhibition of growth at 4 ppm: 81%
  inhibition of growth at 20 ppm: 88%
[5]; single compound
  inhibition of growth at 0.8 ppm: 79%
  inhibition of growth at 4 ppm: 81%
  inhibition of growth at 20 ppm: 91%
[6]; 4 ppm
  inhibition of growth at 4 ppm: 35%
[6]; 20 ppm
  inhibition of growth at 20 ppm: 59%
[7]; 0.8 ppm
  inhibition of growth at 0.8 ppm: 51%
[7]; 4 ppm
  inhibition of growth at 4 ppm: 79%
[7]; 20 ppm
  inhibition of growth at 20 ppm: 100%
[8]; Neocordana musae, single active, 4 ppm, read-out: Efficacy
  inhibition of growth at 4 ppm: 0%
[9]; 4 ppm
  inhibition of growth at 4 ppm: 63%
[9]; 20 ppm
  inhibition of growth at 20 ppm: 82%
[10]; 20 ppm
  inhibition of growth at 20 ppm: 20%
[17]; 0.8 ppm, alone
  inhibition of growth at 0.8 ppm: 0%
[17]; 4.0 ppm, alone
  inhibition of growth at 4 ppm: 0%
[17]; 20.0 ppm, alone
  inhibition of growth at 20 ppm: 16%
[17]; Table G1, 0.8 ppm alone
  inhibition of growth at 0.8 ppm: 0%
[17]; Table G1, 4.0 ppm alone
  inhibition of growth at 4 ppm: 0%
[17]; Table G1, 20.0 ppm alone
  inhibition of growth at 20 ppm: 21%
[11]; read-out: Efficacy
  inhibition of growth at 0.8 ppm: 69%
  inhibition of growth at 4 ppm: 72%
  inhibition of growth at 20 ppm: 100%
[11]; alone, read-out: Efficacy %
  inhibition of growth at 0.8 ppm: 65%
  inhibition of growth at 4 ppm: 75%
  inhibition of growth at 20 ppm: 75%
[12]; 4 ppm, alone
  inhibition of growth at 4 ppm: 21%
[12]; single active compound, 0.8 ppm
  inhibition of growth at 0.8 ppm: 20%
[12]; single active compound, 20 ppm
  inhibition of growth at 20 ppm: 37%
[13]; 4.0 ppm
  inhibition of growth at 4 ppm: 15%
[14]; 4 ppm
  inhibition of growth at 4 ppm: 14%
[14]; single active compound at 0.8 ppm
  inhibition of growth at 0.8 ppm: 0%
[14]; single active compound at 4 ppm
  inhibition of growth at 4 ppm: 0%
[15]; 0.8 ppm
  inhibition of growth at 0.8 ppm: 9%
[15]; 4.0 ppm
  inhibition of growth at 4 ppm: 10%
[15]; 20.0 ppm
  inhibition of growth at 20 ppm: 10%
[16]; single active at 20.0 ppm
  inhibition of growth at 20 ppm: 23%
